Laboratory results taken from PMC9030827, “In Vitro Effects of Mitochondria-Targeted Antioxidants in a Small-Cell Carcinoma of the Ovary of Hypercalcemic Type and in Type 1 and Type 2 Endometrial Cancer” (Biomedicines, 2022).

What was measured:
Format in all cases: cell-based, human
Ishikawa cells [1] = assay: Nuclear changes by Höechst staining; settings: 72 h, 5 μM Mito6_TPP, 10 μM Mito6_isoq.; for Nucleus shape and chromatin condensation (Höechst staining): 20 μM Mito6_picol.
Description: (§1) Morphological changes in all cell lines were evaluated by phase-contrast microscopy (Eclipse TS100 Inverted Microscope, Nikon, Tokyo, Japan) and Giemsa staining. […] The cells were plated in 24-well plates with coverslips using the densities of 1 × 10^5 cells/well in Ishikawa and Hec50co and 2.5 × 10^5 cells/well in COV434 and HFF-1. After adherence, the cells were treated with Mito6_TPP (5 μM), Mito6_picol. (20 μM), or Mito6_isoq. (10 μM) and incubated at 37 °C with 5% CO2 for 72 h. For Giemsa staining, the cells were fixated with paraformaldehyde 4% in Phosphate Buffered Saline (PBS) for 15 min, stained with Giemsa solution for 30 min, mounted with DPX, and observed through bright field microscopy. For Höechst staining, the cells were incubated with 0.5 μg/mL Höechst 33342 in PBS for 20 min in the dark, mounted in Fluoroshield, and observed under a fluorescence microscope equipped with an excitation filter with maximum transmission at 360/400 nm. In both stainings, the cells were observed using the microscope Eclipse CI (Nikon, Japan) and the images were processed with Nikon NIS Elements Image Software (Nikon, Japan).

COV434 cells [2] = assay: Nuclear changes by Höechst staining; settings: COV434, 72 h, 5 μM Mito6_TPP, 10 μM Mito6_isoq.; for Nucleus shape and chromatin condensation (Höechst staining): 20 μM Mito6_picol.
Description: as §1

Hec50co cells [3] = assay: Nuclear changes by Höechst staining; settings: 72 h, 5 μM Mito6_TPP, 10 μM Mito6_isoq.; for Nucleus shape and chromatin condensation (Höechst staining): 20 μM Mito6_picol.
Description: as §1

Ishikawa cells [4] = assay: Mitochondrial membrane potential (Δψm) assessment, DiOC6 probe; settings: 48 h, 5 μM Mito6_TPP, 20 μM Mito6_picol., 10 μM Mito6_isoq.
Description: (§2) The Ishikawa, Hec50co, COV434, and HFF-1 cell lines were plated at a density of 5 × 10^4 cells/well in black 96-well plates. After 24 h, the cells were treated with Mito6_TPP (5 μM), Mito6_picol. (20 μM), or Mito6_isoq. (10 μM) and incubated at 37 °C with 5% CO2 for 48 h. The Δψm study was adapted from the work of Sivandzade et al.. The mitochondrial membrane-depolarizing agent carbonyl cyanide m-chlorophenylhydrazone (CCCP) (50 μM) was used as the positive control, being added to the cells for 20 min prior to the addition of the probe DiOC6 (100 nM) for 30 min at 37 °C in the dark. The fluorescence was then measured using a BioTek Synergy HTX Multi-Mode Microplate Fluorimeter equipped with BioTek Gen5 Data Collection and Analysis Software (BioTek Instruments, Winooski, VT, USA) (excitation: 488 nm; emission: 525 nm).

COV434 cells [5] = assay: as above; settings: COV434, 48 h; 5 μM Mito6_TPP, 20 μM Mito6_picol., 10 μM Mito6_isoq.
Description: as §2

Hec50co cells [6] = assay: as above; settings: 48 h, 5 μM Mito6_TPP, 20 μM Mito6_picol., 10 μM Mito6_isoq.
Description: as §2

Row | SMILES | Nuclear fragmentation (Höechst staining) (Ishikawa cells [1]) | Nucleus shape and chromatin condensation (Höechst staining) (Ishikawa cells [1]) | Nuclear fragmentation (Höechst staining) (COV434 cells [2]) | Nucleus shape and chromatin condensation (Höechst staining) (COV434 cells [2]) | Nuclear fragmentation (Höechst staining) (Hec50co cells [3]) | Nucleus shape and chromatin condensation (Höechst staining) (Hec50co cells [3]) | Mitochondrial membrane potential (Δψm) change vs untreated cells (Ishikawa cells [4]) | Mitochondrial membrane potential (Δψm) change vs untreated cells (COV434 cells [5]) | Mitochondrial membrane potential (Δψm) change vs untreated cells (Hec50co cells [6])
1 | O=C(/C=C/c1ccc(O)c(O)c1)NCCCCCCCCCC[P+](c1ccccc1)(c1ccccc1)c1ccccc1 [Mito6_TPP] | nuclear fragmentation visible | changes in the nucleus shape and the chromatin condensation | nuclear fragmentation visible | changes in the nucleus shape and the chromatin condensation | nuclear fragmentation visible | changes in the nucleus shape and the chromatin condensation | significant decrease | significant decrease | significant decrease
2 | O=C(/C=C/c1ccc(O)c(O)c1)NCCCCCCCCCC[n+]1ccc2ccccc2c1 [Mito6_isoq.] | nuclear fragmentation visible | changes in the nucleus shape and the chromatin condensation | nuclear fragmentation visible | changes in the nucleus shape and the chromatin condensation | nuclear fragmentation visible | changes in the nucleus shape and the chromatin condensation | significant decrease | significant decrease | significant decrease
3 | Cc1cc[n+](CCCCCCCCCCNC(=O)/C=C/c2ccc(O)c(O)c2)cc1 [Mito6_picol.] | – | did not induce any morphological changes | – | did not induce any morphological changes | – | did not induce any morphological changes | decrease | decrease | decrease only in the Ishikawa and COV434 cells
